In patent EP0012543A1, “Compositions containing 1,3-dioxolanes as emollients” (IMPERIAL CHEMICAL INDUSTRIES PLC, priority 1978, dated 1980):

Tested on: skin
Test: Evaluation of emollients: test lotion rated by a panel
Assay type: in vivo, persons
Experimental: The following basic composition is prepared:
The emollient to be tested is stirred with the other ingredients of the oil phase while heating to 70°C. Meanwhile, ingredients of the water phase are stirred and heated to 72°C. The water phase is then added gradually to the stirred oil phase, and the total mixture is stirred while it cools to room temperature. The emulsion (lotion or cream) is allowed to age for 48 hours at room temperature before evaluation.
For evaluation the subject applies a small amount of the lotion to the inner arm, rubs it into the skin and rates five characteristics: ease of application, moistness, smoothness, greasiness and tackiness. Numerical values are given as follows: poor = 0, average or "not sure" = 1, and good = 2. This is done by an experienced panel of 10 persons and ratings for each emollient are the mean for the 10 subjects. With this system, the highest possible rating is 10; the average emollient has a rating of 5; and the worst score is zero. Most of the emollients of the present invention have ratings well above 5.
Specific examples of acetals of fatty aldehydes are listed following under the name of the polyol. The aldehyde in each case was the mixed C13 and C15 aldehyde used in Example 1.

[1] = 0-10 scale, five characteristics (ease of application, moistness, smoothness, greasiness, tackiness) each rated 0-2, mean of 10 subjects, 7.0 parts emollient in lotion aged 48 hours, rubbed into inner arm

Row | SMILES | Emollient Rating [1] | Emollient Rating (in vivo)
1 | OCCCO [1,3-Propanediol] | 6.3 | 
2 | CC(O)CO (centres unmarked) [1,2-Propylene glycol] | 8.1 | 
3 | OCC(O)CO [Glycerol] | 5.8 | 
4 | OCCO [Ethylene glycol] |  | 8.6
5 | OCC(CO)(CO)CO [Pentaerythritol] | 6.3 | 
